BindingDB's records for doi:10.1016/j.bmc.2015.01.026 (Virginia Tech, 2015)

biological target: Acetylcholinesterase (Homo sapiens, UniProt P22303); test: Inhibition of recombinant human AChE; details: read-out: kon (M-1-s-1)
Sequence (P22303 whole entry): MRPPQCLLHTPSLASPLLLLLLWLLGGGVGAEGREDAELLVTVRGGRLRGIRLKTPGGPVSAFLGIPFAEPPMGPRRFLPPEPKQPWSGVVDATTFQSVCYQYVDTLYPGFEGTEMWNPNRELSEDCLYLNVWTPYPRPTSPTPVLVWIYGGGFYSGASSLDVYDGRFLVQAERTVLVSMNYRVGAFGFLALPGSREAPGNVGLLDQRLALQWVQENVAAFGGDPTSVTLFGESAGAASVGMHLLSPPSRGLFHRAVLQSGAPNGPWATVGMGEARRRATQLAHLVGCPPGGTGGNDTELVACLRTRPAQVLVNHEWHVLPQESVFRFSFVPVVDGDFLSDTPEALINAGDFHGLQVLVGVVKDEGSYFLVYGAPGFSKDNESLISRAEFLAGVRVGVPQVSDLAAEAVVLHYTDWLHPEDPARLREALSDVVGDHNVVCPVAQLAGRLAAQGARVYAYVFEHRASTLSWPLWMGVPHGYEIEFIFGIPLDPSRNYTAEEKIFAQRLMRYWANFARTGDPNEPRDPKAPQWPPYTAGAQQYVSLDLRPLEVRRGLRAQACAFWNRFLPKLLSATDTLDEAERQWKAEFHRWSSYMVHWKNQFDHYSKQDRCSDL

| Compound | kon |
| --- | --- |
| CC(C)Cc1cc(OC(=O)N(C)C)no1 | 26.5 M⁻¹ s⁻¹ |
| CCCC(C)c1cc(OC(=O)N2CCOCC2)no1 (stereo not drawn) | 44.7 M⁻¹ s⁻¹ |
| CCCC(C)c1cc(=O)n(C(=O)N(C)C)o1 (stereo not drawn) | 51800 M⁻¹ s⁻¹ |
| CN(C)C(=O)n1oc(C2CC2)cc1=O | 1720 M⁻¹ s⁻¹ |
| CN(C)C(=O)Oc1cc(CCC2CCCC2)on1 | 218 M⁻¹ s⁻¹ |
| CNC(=O)Oc1ccccc1OC(C)C [CHEBI:34938] | 283 M⁻¹ s⁻¹ |
| CC(C)CCc1cc(=O)n(C(=O)N(C)C)o1 | 1350 M⁻¹ s⁻¹ |
| CCC(CC)c1cc(OC(=O)N(C)C)no1 | 151 M⁻¹ s⁻¹ |
| CCCC(C)c1cc(OC(=O)N(C)C)no1 (stereo not drawn) | 848 M⁻¹ s⁻¹ |
| CC(C)c1cc(OC(=O)N(C)C)no1 | 74.3 M⁻¹ s⁻¹ |
| CN(C)C(=O)n1oc(CCC2CCCC2)cc1=O | 1530 M⁻¹ s⁻¹ |
| CCC(C)Cc1cc(=O)n(C(=O)N(C)C)o1 (stereo not drawn) | 1870 M⁻¹ s⁻¹ |
| CC(C)CCc1cc(OC(=O)N(C)C)no1 | 31.8 M⁻¹ s⁻¹ |
| CCCC(C)c1cc(=O)n(C(=O)N2CCC2)o1 (stereo not drawn) | 31000 M⁻¹ s⁻¹ |
| CN(C)C(=O)Oc1cc(C2CCC2)on1 | 31 M⁻¹ s⁻¹ |
| CCCC(C)c1cc(OC(=O)N2CCCC2)no1 (stereo not drawn) | 27 M⁻¹ s⁻¹ |
| CNC(=O)Oc1cccc2c1OC(C)(C)C2 [CHEBI:34611] | 7130 M⁻¹ s⁻¹ |
| CC(C)Cc1cc(=O)n(C(=O)N(C)C)o1 | 515 M⁻¹ s⁻¹ |
| CCCCC(CC)c1cc(OC(=O)N(C)C)no1 (stereo not drawn) | 35.5 M⁻¹ s⁻¹ |
| CN(C)C(=O)n1oc(C2CCC2)cc1=O | 3880 M⁻¹ s⁻¹ |
| CN(C)C(=O)Oc1cc(CCC2CC2)on1 | 138 M⁻¹ s⁻¹ |
| CCC(C)c1cc(=O)n(C(=O)N(C)C)o1 (stereo not drawn) | 36200 M⁻¹ s⁻¹ |

| Compound | kon |
| --- | --- |
| CCC(C)n1cc(OC(=O)NC)cn1 (stereo not drawn) | 13400 M⁻¹ s⁻¹ |
| CCCC(C)c1cc(=O)n(C(=O)N(CC)CC)o1 (stereo not drawn) | 3000 M⁻¹ s⁻¹ |
| CN(C)C(=O)Oc1cc(CCC2CCC2)on1 | 121 M⁻¹ s⁻¹ |
| CCC(C)c1cc(OC(=O)N(C)C)no1 (stereo not drawn) | 1000 M⁻¹ s⁻¹ |
| Cc1cc(=O)n(C(=O)N(C)C)o1 | 20.3 M⁻¹ s⁻¹ |
| CNC(=O)Oc1cccc2c1OC(C)(C)O2 [CHEBI:34556] | 1850 M⁻¹ s⁻¹ |
| CN(C)C(=O)Oc1cc(C2CCCC2)on1 | 77 M⁻¹ s⁻¹ |
| CN(C)C(=O)n1oc(CCC2CC2)cc1=O | 2400 M⁻¹ s⁻¹ |
| CCC(C)Cc1cc(OC(=O)N(C)C)no1 (stereo not drawn) | 28.3 M⁻¹ s⁻¹ |
| CN(C)C(=O)n1oc(CCC2CCC2)cc1=O | 1240 M⁻¹ s⁻¹ |
| CN(C)C(=O)Oc1cc(C2CC2)on1 | 33.7 M⁻¹ s⁻¹ |
| CNC(=O)Oc1cccc(C(C)(C)C)c1 | 2100 M⁻¹ s⁻¹ |
| CCCC(C)c1cc(=O)n(C(=O)N(C)CC)o1 (stereo not drawn) | 18000 M⁻¹ s⁻¹ |
| CCCC(C)c1cc(OC(=O)N(C)CC)no1 (stereo not drawn) | 152 M⁻¹ s⁻¹ |
| CCC(CC)c1cc(=O)n(C(=O)N(C)C)o1 | 33200 M⁻¹ s⁻¹ |
| CC(C)c1cc(=O)n(C(=O)N(C)C)o1 | 9350 M⁻¹ s⁻¹ |
| CCCC(C)c1cc(=O)n(C(=O)N2CCOCC2)o1 (stereo not drawn) | 433 M⁻¹ s⁻¹ |
| Cc1cc(OC(=O)N(C)C)no1 | 1.97 M⁻¹ s⁻¹ |
| CN(C)C(=O)Oc1cc(CC(C)(C)C)on1 | 7.33 M⁻¹ s⁻¹ |
| CN(C)C(=O)n1oc(C2CCCC2)cc1=O | 11300 M⁻¹ s⁻¹ |
| CCCC(C)c1cc(=O)n(C(=O)N2CCCC2)o1 (stereo not drawn) | 6320 M⁻¹ s⁻¹ |
